Experimental data: patent US9353100B2, “Macrocyclic serine protease inhibitors, pharmaceutical compositions thereof, and their use for treating HCV infections” (Idenix Pharmaceuticals LLC, priority 2011, dated 2016)
Like-named read-outs stand apart in the source and are kept apart here.

What was measured:
HCV NS3-NS4A protease 3a = biological target: T1, HCV NS3-NS4A protease 3a (Hepatitis C virus genotype 3a, UniProt Q81258); assay: HCV protease assay (FRET peptide), genotype 3a; type: biochemical
T1 construct: HCV NS3-NS4A protease, which was produced according to the method of Taremi et al; made in house
T1 sequence (Q81258 1664-1717): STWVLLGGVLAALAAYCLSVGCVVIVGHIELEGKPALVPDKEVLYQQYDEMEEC
T1 sequence (Q81258 1033-1214): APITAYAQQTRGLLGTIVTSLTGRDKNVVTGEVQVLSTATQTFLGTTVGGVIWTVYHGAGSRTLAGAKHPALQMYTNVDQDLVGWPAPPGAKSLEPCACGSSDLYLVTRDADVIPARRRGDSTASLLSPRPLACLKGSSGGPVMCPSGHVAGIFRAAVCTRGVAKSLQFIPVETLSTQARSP
Description: (§1) General procedure: Measurement of the inhibitory effect of compounds on HCV protease activity was performed using the HiLyte Fluor™ TR/QXL™ 610 FRET peptide from AnaSpec, Inc. (San Jose, Calif.) under conditions developed in-house using 2-3 nM HCV NS3-NS4A protease, which was produced according to the method of Taremi et al. (Protein Science, 1998, 7, 2143-2149). The compounds were tested at a variety of concentrations in assay buffer containing a final DMSO concentration of 5%. Reactions were allowed to proceed for 60 min at 30° C. and fluorescence measurements were recorded with a PerkinElmer Victor^3 V 1420 Multilabel Counter. The IC50 values were determined from the percent inhibition versus concentration data using a sigmoidal non-linear regression analysis based on four parameters with XLfit 4.1 software.

HCV NS3-NS4A protease 1b = biological target: T2, HCV NS3-NS4A protease 1b (Hepatitis C virus genotype 1b, UniProt Q9WMX2); assay: HCV protease assay (FRET peptide), genotype 1b; type: biochemical
T2 construct: HCV NS3-NS4A protease, which was produced according to the method of Taremi et al; made in house
T2 sequence (Q9WMX2 1658-1711): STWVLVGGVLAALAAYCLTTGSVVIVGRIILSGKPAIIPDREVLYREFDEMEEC
T2 sequence (Q9WMX2 1027-1208): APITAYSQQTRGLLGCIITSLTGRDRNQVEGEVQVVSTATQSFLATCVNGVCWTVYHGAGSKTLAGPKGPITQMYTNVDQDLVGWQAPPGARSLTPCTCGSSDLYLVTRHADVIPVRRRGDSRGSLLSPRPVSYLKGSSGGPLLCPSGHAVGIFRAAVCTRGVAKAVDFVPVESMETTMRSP
Description: as §1

[1] = Cytotoxicity evaluation, Cell Titer 96 AQueous One Solution; type: cell-based, human; conditions: human; Zluc cells, cellular viability
Description: For cytotoxicity evaluation, Zluc cells were treated with compounds as described above and cellular viability was monitored using the Cell Titer 96 AQueous One Solution Cell Proliferation Assay (Promega). Plates were then read at 490 nm in a Victor^3V 1420 multilabel counter (Perkin Elmer) and CC50 concentrations were determined using Microsoft Excel and XLfit 4.1 software.

[2] = system: HCV genotype 1b Con1 strain subgenomic luciferase replicon (Zluc) in Huh-7 cells; assay: HCV luciferase replicon assay, genotype 1b (Zluc); type: cell-based; conditions: Hepatitis C virus, read-out: EC50 Against Relpicon 1b
Description: (§2) General procedure: The HCV luciferase replicon assay measures the ability of a test compound to inhibit HCV replication in cell culture after 3 days of treatment in a human hepatoma cell line (Huh-7) bearing a HCV replicon containing a luciferase-neomycin phosphotransferase fusion gene. The inhibition of HCV replication was measured by quantification of luciferase protein expression. Briefly, Huh-7 cells containing either the HCV genotype 1a H77 strain or genotype 1b Con1 strain subgenomic luciferase replicon (H1a-luc or Zluc, respectively) were grown in DMEM containing glucose, L-glutamine and sodium pyruvate, 10% fetal bovine serum (FBS), 100 IU/mL penicillin, 100 μg/mL streptomycin, 2 mM GlutaMAX, non-essential amino acids and 0.25 (H1a-luc) or 0.5 (Zluc) mg/mL G418. GlutaMAX was obtained from Invitrogen, Corp.; all other media reagents were obtained from Mediatech, Inc. For dose-response testing, the cells were seeded in 96-well plates at 1×10^4 (H1a-luc) or 7.5×10^3 (Zluc) cells/well in a volume of 50 μL and incubated at 37° C./5% CO2. Three hours after plating, 50 μL of ten 5-fold serial dilutions of compound were added, and cell cultures were incubated at 37° C./5% CO2 for 72 hours. In all cases, Huh-7 cells lacking the HCV replicon served as negative control. To assess luciferase expression, the media/compound was removed from the plates and ONE-glo Luciferase assay reagent (Promega) was added to each well. The assay plates were shaken for 3 minutes at room temperature and luciferase activity for each well was measured with a 1 sec read time on the Victor^3V multilabel counter using a 700 nm cut-off filter (Perkin Elmer). EC50 values were calculated from dose response curves from the resulting best-fit equations determined by Microsoft Excel and XLfit 4.1 software.

[3] = system: HCV genotype 1a H77 strain subgenomic luciferase replicon (H1a-luc) in Huh-7 cells; assay: HCV luciferase replicon assay, genotype 1a (H1a-luc); type: cell-based; conditions: for FS (1a/1b): EC50 against genotype 1a HCV divided by EC50 against genotype 1b, replicon luciferase assay; for EC50: Hepatitis C virus, read-out: EC50 Against Relpicon 1a
Description: as §2

HCV NS3-NS4A protease 5a = biological target: T3, HCV NS3-NS4A protease 5a (Hepatitis C virus genotype 5a, UniProt O39928); assay: HCV protease assay (FRET peptide), genotype 5a; type: biochemical; conditions: genotype 5a protease; 60 min at 30° C.; read-out: IC50 Against HS3/4A 5a
T3 construct: HCV NS3-NS4A protease, which was produced according to the method of Taremi et al; made in house
T3 sequence (O39928 1659-1712): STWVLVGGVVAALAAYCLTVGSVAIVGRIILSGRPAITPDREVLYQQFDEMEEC
T3 sequence (O39928 1028-1209): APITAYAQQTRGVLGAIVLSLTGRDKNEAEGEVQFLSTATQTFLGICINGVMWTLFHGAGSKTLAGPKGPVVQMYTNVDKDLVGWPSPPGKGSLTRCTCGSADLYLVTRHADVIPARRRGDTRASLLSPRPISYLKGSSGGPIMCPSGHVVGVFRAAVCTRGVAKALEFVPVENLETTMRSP
Description: as §1

HCV NS3-NS4A protease 2a = biological target: T4, HCV NS3-NS4A protease 2a (Hepatitis C virus genotype 2a, UniProt Q99IB8); assay: HCV protease assay (FRET peptide), genotype 2a; type: biochemical; conditions: genotype 2a protease; 60 min at 30° C.; read-out: IC50 Against HS3/4A 2a
T4 construct: HCV NS3-NS4A protease, which was produced according to the method of Taremi et al; made in house
T4 sequence (Q99IB8 1662-1715): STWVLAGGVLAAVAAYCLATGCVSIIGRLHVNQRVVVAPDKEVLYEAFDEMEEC
T4 sequence (Q99IB8 1031-1212): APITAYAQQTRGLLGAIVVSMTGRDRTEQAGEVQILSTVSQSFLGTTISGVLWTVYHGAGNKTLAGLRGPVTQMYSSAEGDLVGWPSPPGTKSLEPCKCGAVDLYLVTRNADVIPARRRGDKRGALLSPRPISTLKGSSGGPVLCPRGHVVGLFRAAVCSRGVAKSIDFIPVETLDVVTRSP
Description: as §1

HCV NS3-NS4A protease 6a = biological target: T5, HCV NS3-NS4A protease 6a (Hepatitis C virus genotype 6a, UniProt O39927); assay: HCV protease assay (FRET peptide), genotype 6a; type: biochemical; conditions: genotype 6a protease; 60 min at 30° C.; read-out: IC50 Against HS3/4A 6a
T5 construct: HCV NS3-NS4A protease, which was produced according to the method of Taremi et al; made in house
T5 sequence (O39927 1031-1212): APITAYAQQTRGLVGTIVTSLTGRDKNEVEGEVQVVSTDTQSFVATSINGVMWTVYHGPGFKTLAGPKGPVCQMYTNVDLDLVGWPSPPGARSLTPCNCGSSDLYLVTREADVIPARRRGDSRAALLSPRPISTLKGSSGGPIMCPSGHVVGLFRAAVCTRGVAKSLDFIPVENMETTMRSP
T5 sequence (O39927 1662-1715): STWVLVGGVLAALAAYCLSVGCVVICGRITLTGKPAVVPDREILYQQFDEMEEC
Description: as §1

HCV NS3-NS4A protease 1a = biological target: T6, HCV NS3-NS4A protease 1a (Hepatitis C virus genotype 1a, UniProt P27958); assay: HCV protease assay (FRET peptide), genotype 1a; type: biochemical; conditions: genotype 1a protease; 60 min at 30° C.; read-out: IC50 Against HS3/4A 1a
T6 construct: HCV NS3-NS4A protease, which was produced according to the method of Taremi et al; made in house
T6 sequence (P27958 1027-1208): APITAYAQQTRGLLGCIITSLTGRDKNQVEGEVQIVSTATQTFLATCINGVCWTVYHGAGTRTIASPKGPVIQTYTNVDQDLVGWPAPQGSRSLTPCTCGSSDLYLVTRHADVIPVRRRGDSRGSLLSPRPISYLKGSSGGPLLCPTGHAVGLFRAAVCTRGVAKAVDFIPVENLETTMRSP
T6 sequence (P27958 1658-1711): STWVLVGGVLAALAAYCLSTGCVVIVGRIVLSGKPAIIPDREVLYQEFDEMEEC
Description: as §1

[4] = system: genotype 1b HCV replicon in Zluc cells; assay: Genotype 1b HCV replicon luciferase assay with 10% FCS or 45% human serum; type: cell-based; conditions: EC50 in presence of 45% HS divided by EC50 in presence of 10% FCS
Description: as §2
In Table 1, the values of FS with 45% HS were determined using the genotype 1b HCV replicon luciferase screening assay using Zluc cells, except that activity in the presence of 10% fetal calf serum (FCS) or 45% human serum (HS) was determined in parallel. The fold shift (FS) with 45% HS is the EC50 value in the presence of 45% HS divided by the EC50 value in the presence of 10% FCS. FS (1a/1b) is the EC50 value against genotype 1a HCV divided by the EC50 value against the genotype 1b in the replicon luciferase screening assay.

HCV NS3-NS4A protease 4a = biological target: T7, HCV NS3-NS4A protease 4a (Hepatitis C virus genotype 4a, UniProt O39929); assay: HCV protease assay (FRET peptide), genotype 4a; type: biochemical; conditions: genotype 4a protease; 60 min at 30° C.; read-out: IC50 Against HS3/4A 4a
T7 construct: HCV NS3-NS4A protease, which was produced according to the method of Taremi et al; made in house
T7 sequence (O39929 1658-1711): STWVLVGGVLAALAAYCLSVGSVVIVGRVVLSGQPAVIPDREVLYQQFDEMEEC
T7 sequence (O39929 1027-1208): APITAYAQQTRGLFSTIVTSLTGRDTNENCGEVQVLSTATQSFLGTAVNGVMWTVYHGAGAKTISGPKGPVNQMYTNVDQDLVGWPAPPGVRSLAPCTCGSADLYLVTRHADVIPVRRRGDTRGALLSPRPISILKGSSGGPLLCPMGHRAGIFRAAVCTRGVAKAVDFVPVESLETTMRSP
Description: as §1

[5] = genotype 1b Con1 replicon, Huh-7 (Zluc), 72 hours
[6] = genotype 1a H77 replicon, Huh-7 (H1a-luc), 72 hours

## Cc1csc(-c2cc(O[C@H]3CC[C@H]4C(=O)N(C)CCCC/C=C\[C@@H]5C[C@@]5(C(=O)NS(=O)(=O)C5(C)CC5)NC(=O)[C@@H]4C3)cc(-c3nc(C(F)(F)F)cs3)n2)n1 [Compound C102, (1R,4R,6R,15R,18S)-1-methyl-cyclopropanesulfonic acid {13-methyl-18-[2-(4-methyl-thiazol-2-yl)-6-(4-trifluoromethyl-thiazol-2-yl)-pyridin-4-yloxy]-2,14-dioxo-3,13-diaza-tricyclo[13.4.0.0]nonadec-7-ene-4-carbonyl}-amide]
HCV NS3-NS4A protease 3a
  IC50: < 10 nM
HCV NS3-NS4A protease 1b
  IC50: < 10 nM
[1]
  CC50: > 10000 nM
[2]; [5]
  EC50: < 10 nM
[3]
  FS (1a/1b): 5
[3]; [6]
  EC50: < 10 nM

## COc1ccc2c(O[C@H]3CC[C@H]4C(=O)N(C)CCCC/C=C\[C@@H]5C[C@@]5(C(=O)NS(=O)(=O)C5(C)CC5)NC(=O)[C@@H]4C3)cc(-c3nc(C(C)C)cs3)nc2c1C [Compound A101, (1R,4R,6R,15R,18S)-1-methyl-cyclopropanesulfonic acid {18-[2-(4-isopropyl-thiazol-2-yl)-7-methoxy-8-methyl-quinolin-4-yloxy]-13-methyl-2,14-dioxo-3,13-diaza-tricyclo[13.4.0.0]nonadec-7-ene-4-carbonyl}-amide]
HCV NS3-NS4A protease 5a
  IC50: 10 to 100 nM
HCV NS3-NS4A protease 2a
  IC50: 10 to 100 nM
HCV NS3-NS4A protease 3a
  IC50: 100 to 1000 nM
HCV NS3-NS4A protease 6a
  IC50: < 10 nM
HCV NS3-NS4A protease 1a
  IC50: < 10 nM
[4]
  FS with 45% HS: >40
HCV NS3-NS4A protease 1b
  IC50: < 10 nM
[1]
  CC50: > 10000 nM
[2]; [5]
  EC50: < 10 nM
HCV NS3-NS4A protease 4a
  IC50: < 10 nM
[3]
  FS (1a/1b): 6
[3]; [6]
  EC50: 10 to 100 nM

## C#Cc1csc(-c2cc(O[C@H]3CC[C@H]4C(=O)N(C)CCCC/C=C\[C@@H]5C[C@@]5(C(=O)NS(=O)(=O)C5(C)CC5)NC(=O)[C@@H]4C3)c3ccc(OC)c(C)c3n2)n1 [Compound 17a, (1R,4R,6R,15R,18S)-1-methyl-cyclopropanesulfonic acid {18-[2-(4-ethynyl-thiazol-2-yl)-7-methoxy-8-methyl-quinolin-4-yloxy]-13-methyl-2,14-dioxo-3,13-diaza-tricyclo[13.4.0.0]nonadec-7-ene-4-carbonyl}-amide, reference compound]
HCV NS3-NS4A protease 5a
  IC50: < 10 nM
HCV NS3-NS4A protease 2a
  IC50: < 10 nM
HCV NS3-NS4A protease 3a
  IC50: 10 to 100 nM
HCV NS3-NS4A protease 6a
  IC50: < 10 nM
HCV NS3-NS4A protease 1a
  IC50: < 10 nM
[4]
  FS with 45% HS: 29
HCV NS3-NS4A protease 1b
  IC50: < 10 nM
[1]
  CC50: > 10000 nM
[2]; [5]
  EC50: < 10 nM
HCV NS3-NS4A protease 4a
  IC50: < 10 nM
[3]
  FS (1a/1b): 8
[3]; [6]
  EC50: < 10 nM

## CN1CCCC/C=C\[C@@H]2C[C@@]2(C(=O)NS(=O)(=O)C2(C)CC2)NC(=O)[C@@H]2C[C@@H](Oc3nc(-c4ccc(Cl)cc4)sc3-c3ccccc3)CC[C@H]2C1=O [Compound D104]
HCV NS3-NS4A protease 1b; read-out: IC50 Against HS3/4A 1b, genotype 1b protease, 60 min at 30° C.
  IC50: 10 to 100 nM
[1]
  CC50: > 10000 nM
[2]; Huh-7, 72 h
  EC50: 10 to 100 nM
[3]
  FS (1a/1b): 188
[3]; Huh-7, 72 h
  EC50: > 10000 nM

## CN1CCCC/C=C\[C@@H]2C[C@@]2(C(=O)NS(=O)(=O)C2(C)CC2)NC(=O)[C@@H]2C[C@@H](Oc3nc(-c4cccc(C(F)(F)F)c4)sc3-c3ccccc3)CC[C@H]2C1=O [Compound D101, (1R,4R,6R,15R,18S)-1-methyl-cyclopropanesulfonic acid {13-methyl-2,14-dioxo-18-[5-phenyl-2-(3-trifluoromethyl-phenyl)-thiazol-4-yloxy]-3,13-diaza-tricyclo[13.4.0.0]nonadec-7-ene-4-carbonyl}-amide]
HCV NS3-NS4A protease 3a
  IC50: 10 to 100 nM
HCV NS3-NS4A protease 1b
  IC50: 10 to 100 nM
[1]
  CC50: > 10000 nM
[2]; [5]
  EC50: 10 to 100 nM
[3]
  FS (1a/1b): 147
[3]; [6]
  EC50: 1000 to 10000 nM

## CN1CCCC/C=C\[C@@H]2C[C@@]2(C(=O)NS(=O)(=O)C2(C)CC2)NC(=O)[C@@H]2C[C@@H](Oc3cc(-c4nc(C(F)(F)F)cs4)nc(-c4nc(C(F)(F)F)cs4)n3)CC[C@H]2C1=O [Compound C104, (1R,4R,6R,15R,18S)-1-methyl-cyclopropanesulfonic acid {18-[2,6-bis(4-trifluoromethyl-thiazol-2-yl)-pyrimidin-4-yloxy]-13-methyl-2,14-dioxo-3,13-diaza-tricyclo[13.4.0.0]nonadec-7-ene-4-carbonyl}-amide]
HCV NS3-NS4A protease 3a
  IC50: 10 to 100 nM
HCV NS3-NS4A protease 1b
  IC50: < 10 nM
[1]
  CC50: > 10000 nM
[2]; [5]
  EC50: < 10 nM
[3]
  FS (1a/1b): 5
[3]; [6]
  EC50: < 10 nM

## CC(C)c1csc(-c2cc(O[C@H]3CC[C@H]4C(=O)N(C)CCCC/C=C\[C@@H]5C[C@@]5(C(=O)NS(=O)(=O)C5(C)CC5)NC(=O)[C@@H]4C3)nc(-c3nc(C(F)(F)F)cs3)n2)n1 [Compound C103, (1R,4R,6R,15R,18S)-1-methyl-cyclopropanesulfonic acid {18-[6-(4-isopropyl-thiazol-2-yl)-2-(4-trifluoromethyl-thiazol-2-yl)-pyrimidin-4-yloxy]-13-methyl-2,14-dioxo-3,13-diaza-tricyclo[13.4.0.0]nonadec-7-ene-4-carbonyl}-amide]
HCV NS3-NS4A protease 3a
  IC50: < 10 nM
HCV NS3-NS4A protease 1b
  IC50: < 10 nM
[1]
  CC50: > 10000 nM
[2]; [5]
  EC50: < 10 nM
[3]
  FS (1a/1b): 6
[3]; [6]
  EC50: < 10 nM
